Test results published in patent publication US6464988B1, “Glipizide-cyclodextrin inclusion complexes and their pharmaceutical composition” (USV Limited, priority 2001, dated 2002).

Assay: In-vitro dissolution studies (% release of glipizide)
Type: physicochemical
Settings: containing 10 mg of Glipizide

- % release of glipizide (0.1N Hydrochloric acid, 200 ml, 5 mins): 14-18%
- % release of glipizide (0.1N Hydrochloric acid, 200 ml, 15 mins): 23-24%
- % release of glipizide (0.1N Hydrochloric acid, 200 ml, 30 mins): 23-26%
- % release of glipizide (0.1N Hydrochloric acid, 400 ml, 5 mins): 16-20%
- % release of glipizide (0.1N Hydrochloric acid, 400 ml, 15 mins): 26-27%
- % release of glipizide (0.1N Hydrochloric acid, 400 ml, 30 mins): 26-30%
- % release of glipizide (0.1N Hydrochloric acid, 900 ml, 5 mins): 16-18%
- % release of glipizide (0.1N Hydrochloric acid, 900 ml, 15 mins): 22-26%
- % release of glipizide (0.1N Hydrochloric acid, 900 ml, 30 mins): 24-27%
- % release of glipizide (Phosphate Buffer pH 6.8 USP, 200 ml, 5 mins): 23-27%
- % release of glipizide (Phosphate Buffer pH 6.8 USP, 200 ml, 15 mins): 65-67%
- % release of glipizide (Phosphate Buffer pH 6.8 USP, 200 ml, 30 mins): 64-67%
- % release of glipizide (Phosphate Buffer pH 6.8 USP, 400 ml, 5 mins): 24-29%
- % release of glipizide (Phosphate Buffer pH 6.8 USP, 400 ml, 15 mins): 64-69%
- % release of glipizide (Phosphate Buffer pH 6.8 USP, 400 ml, 30 mins): 65-67%
- % release of glipizide (Phosphate Buffer pH 6.8 USP, 900 ml, 5 mins): 25-28%
- % release of glipizide (Phosphate Buffer pH 6.8 USP, 900 ml, 15 mins): 55-62%
- % release of glipizide (Phosphate Buffer pH 6.8 USP, 900 ml, 30 mins): 65-68%
- % release of glipizide (Purified water pH 7.0, 200 ml, 5 mins): 30-32%
- % release of glipizide (Purified water pH 7.0, 200 ml, 15 mins): 38-40%
- % release of glipizide (Purified water pH 7.0, 200 ml, 30 mins): 39-41%
- % release of glipizide (Purified water pH 7.0, 400 ml, 5 mins): 32-34%
- % release of glipizide (Purified water pH 7.0, 400 ml, 15 mins): 40-42%
- % release of glipizide (Purified water pH 7.0, 400 ml, 30 mins): 40-44%
- % release of glipizide (Purified water pH 7.0, 900 ml, 5 mins): 20-25%
- % release of glipizide (Purified water pH 7.0, 900 ml, 15 mins): 30-33%
- % release of glipizide (Purified water pH 7.0, 900 ml, 30 mins): 38-41%
Substance: 1-cyclohexyl -3-[[p-[2-(methylpyrazinecarboxamido)ethyl]phenyl]sulfonyl]urea [Glipizide]
